A short description of data set [1]: Safety index, ratio of CC50 for human Huh7.5 cells to EC50 for Hepatitis C virus subtype 2a J6/JFH.
Data set [2] in a line: Cytotoxicity against human Huh7.5 cells assessed as cell viability after 48 hrs by Alamar blue assay. For orientation: Alamar Blue is a resazurin reagent that responds to reducing activity.
The next data set has as its system Hepatitis C virus. The data set can be described thus: microbe, parasite or virus in culture. To be noted: genotype 2a J6/JFH, Huh-7, 48 h. The class given is functional, organism-based, Hepacivirus hominis.
Data set [3] in a line: Inhibition of HCV NS3 protease (1027 to 1206) after 30 mins in presence of Pep4AK. More on the design: species or system Hepacivirus hominis.

The record followed here is ChEMBL document CHEMBL2380261, “Analogs design, synthesis and biological evaluation of peptidomimetics with potential anti-HCV activity” (Bioorg Med Chem, 2013).

The structures appear in SMILES notation. Some results are limits rather than exact numbers.

Description for Hepatitis C virus: Antiviral activity against Hepatitis C virus subtype 2a J6/JFH transfected in human Huh7.5 cells assessed as inhibition of viral replication after 48 hrs by luciferase reporter gene assay

Broadly, the CC50 is the concentration at which the toxic effect on the cells reaches its halfway point. A word on the EC50: it is the concentration that produces a half-maximal response. On to `CC(C)[C@H](NC(=O)CCC(=O)/C=C/c1ccccc1)C(=O)O`, for which, in data set [1], the selectivity ratio is above 4.45. In addition, the CC50 at 48 h in data set [2] was above 100000 nM. In the data set with Hepatitis C virus, the EC50 worked out at 22500 nM.

Regarding `C[C@H](NC(=O)CCC(=O)/C=C/c1ccc2c(c1)OCO2)C(=O)O`, the selectivity ratio in data set [1] was 2.22. Moreover, the CC50 at 48 h in data set [2] was found to be 12100 nM. Besides, the EC50 with Hepatitis C virus turned out to be 5440 nM.

For `CCOS(=O)(=O)/C=C/[C@H](Cc1ccccc1)NC(=O)OC(C)(C)C`, in data set [1], the selectivity ratio worked out at 2.88. Further, the CC50 at 48 h in data set [2] was 3500 nM. The compound also returned an EC50 in the data set with Hepatitis C virus of 1210 nM.

Consider `CCOS(=O)(=O)/C=C/[C@H](Cc1ccccc1)NC(=O)CCC(=O)/C=C/c1ccccc1`, for which, in data set [2], the CC50 at 48 h amounted to 1000 nM. The same compound showed an EC50 with Hepatitis C virus of 296 nM.

For `CCOS(=O)(=O)/C=C/[C@H](Cc1ccccc1)NC(C)=O`, the selectivity ratio in data set [1] is 3.75. Moreover, the CC50 at 48 h in data set [2] was determined as 7910 nM. Further, the midpoint of the response with Hepatitis C virus, the EC50, lay at 2110 nM.

In the case of `CCOS(=O)(=O)/C=C/[C@@H](NC(C)=O)[C@@H](C)O`, the selectivity ratio in data set [1] is 6.36. In data set [2], the CC50 at 48 h was 27700 nM. This compound also gave a half-maximal effective concentration (EC50) in the data set with Hepatitis C virus of 4360 nM.

A word on the IC50: it is the concentration at which inhibition is half-maximal. Regarding `CC(C)C[C@H](NC(=O)[C@]1(Cc2ccsc2C(=O)O)Cc2ccccc2N1)C(=O)N[C@@H](CC(F)F)C(=O)C(=O)O`, in data set [3], the 50% inhibitory concentration (IC50) is 700 nM.

As to `COC(=O)[C@H](C)NC(=O)CCC(=O)/C=C/c1ccccc1`, in data set [1], the selectivity ratio was determined as 1.37. The CC50 at 48 h in data set [2] was found to be 1320 nM. The midpoint of the response in the data set with Hepatitis C virus, the EC50, lay at 960 nM.

As for `COC(=O)[C@@H](NC(=O)CCC(=O)/C=C/c1ccccc1)C(C)C`, in data set [1], the selectivity ratio came to 3.88. Moreover, in data set [2], the CC50 at 48 h was 1480 nM. Also, in the data set on Hepatitis C virus, the EC50 came out at 381 nM.

Regarding `COC(=O)[C@H](C)NC(=O)CCC(=O)/C=C/c1cccnc1`, the selectivity ratio in data set [1] was determined as 2.34. Further, in data set [2], the CC50 at 48 h worked out at 2110 nM. Besides, it took 900 nM to reach a half-maximal effect with Hepatitis C virus (EC50).

As to `COC(=O)[C@@H](NC(=O)CCC(=O)/C=C/c1cccnc1)C(C)C`, the selectivity ratio in data set [1] was 1.38. The CC50 at 48 h in data set [2] worked out at 1570 nM. The same compound gave an EC50 in the data set on Hepatitis C virus of 1140 nM.

Regarding `COC(=O)[C@H](C)NC(=O)CCC(=O)/C=C/c1ccc2c(c1)OCO2`, in data set [1], the selectivity ratio is 3.19. The CC50 at 48 h in data set [2] amounted to 1110 nM. In the data set on Hepatitis C virus, this compound displayed an EC50 of 347 nM.

As for `COC(=O)[C@@H](NC(=O)CCC(=O)/C=C/c1ccc2c(c1)OCO2)C(C)C`, the selectivity ratio in data set [1] turned out to be 2.83. Also, in data set [2], the CC50 at 48 h was found to be 1390 nM. In the data set on Hepatitis C virus, this compound gave an EC50 of 682 nM.

For `CC(C)(C)NC(=O)N[C@H](C(=O)N1C[C@H]2[C@@H]([C@H]1C(=O)NC(CC1CCC1)C(=O)C(N)=O)C2(C)C)C(C)(C)C` (stereo partly drawn) [BOCEPREVIR], in data set [2], the CC50 at 48 h was above 100000 nM. Moreover, the EC50 in the data set with Hepatitis C virus is 800 nM.
